# Results as given in patent US20160038468A1 (priority 2013, published 2016).
# Like-named read-outs stand apart in the source and are kept apart here.
# How the values were obtained:
# Gardnerella vaginalis = experiment: Agar dilution MIC (CLSI), Gardnerella vaginalis vaginal isolates; assay type: cell-based; details: for Number of strains with indicated MIC: 100 samples
# Anaerococcus tetradius = experiment: Agar dilution MIC (CLSI), Anaerococcus tetradius vaginal isolates; assay type: cell-based; details: for MIC: read-out: Minimal Inhibitory Concentration (MIC)
# Mobiluncus spp = experiment: Agar dilution MIC (CLSI), Mobiluncus spp vaginal isolate; assay type: cell-based; details: read-out: Minimal Inhibitory Concentration (MIC)
# Atopobium vaginae = experiment: Agar dilution MIC (CLSI), Atopobium vaginae vaginal isolates; assay type: cell-based; details: for Number of strains with indicated MIC: 62 samples
# [1] = test system: B. thetaiotaomicron, ATCC 29741; details: agar dilution testing, from CLSI Table 5; cited from earlier work
# B. fragilis, ATCC 25285 = details: agar dilution testing, from CLSI Table 5; cited from earlier work
# Prevotella bivia = experiment: Agar dilution MIC (CLSI), Prevotella bivia vaginal isolates; assay type: cell-based; details: for Number of strains with indicated MIC: 34 samples; for MIC: read-out: Minimal Inhibitory Concentration (MIC)
# Peptoniphilus lacrimalis = experiment: Agar dilution MIC (CLSI), Peptoniphilus lacrimalis vaginal isolates; assay type: cell-based; details: for MIC: read-out: Minimal Inhibitory Concentration (MIC)
# [2] = Gardnerella vaginalis, # tested 107
# [3] = Anaerococcus tetradius, # tested 21
# [4] = Fannyhessea vaginae, # tested 62
# [5] = Peptoniphilus lacrimalis, # tested 20
smiles,measurement,setting,value
Cc1ncc([N+](=O)[O-])n1CCO [Metronidazole],activity against G vaginalis,Gardnerella vaginalis,limited activity
same,MIC50,Gardnerella vaginalis; [2],64 µg/mL
same,MIC90,Gardnerella vaginalis; [2],> 128 µg/mL
same,Number of strains with indicated MIC,Gardnerella vaginalis; MIC 8 μg/ml,12
same,Number of strains with indicated MIC,Gardnerella vaginalis; MIC 16 μg/ml,16
same,Number of strains with indicated MIC,Gardnerella vaginalis; MIC 32 μg/ml,14
same,Number of strains with indicated MIC,Gardnerella vaginalis; MIC 64 μg/ml,15
same,Number of strains with indicated MIC,Gardnerella vaginalis; MIC >[…],34
same,Number of strains with indicated MIC,Gardnerella vaginalis; MIC […],6
same,MIC,"Anaerococcus tetradius; Anaerococcus tetradius, isolate 601103V 21",1 µg/mL
same,MIC,"Anaerococcus tetradius; Anaerococcus tetradius, isolate 601175V I",1 µg/mL
same,MIC,"Anaerococcus tetradius; Anaerococcus tetradius, isolate 601202V 11",1 µg/mL
same,MIC,"Anaerococcus tetradius; Anaerococcus tetradius, isolate 601212V 14",1 µg/mL
same,MIC,"Anaerococcus tetradius; Anaerococcus tetradius, isolate 601221V 12",128 µg/mL
same,MIC,"Anaerococcus tetradius; Anaerococcus tetradius, isolate 601242V 17",1 µg/mL
same,MIC,"Anaerococcus tetradius; Anaerococcus tetradius, isolate 601256V 9",1 µg/mL
same,MIC,"Anaerococcus tetradius; Anaerococcus tetradius, isolate 601287V V",1 µg/mL
same,MIC,"Anaerococcus tetradius; Anaerococcus tetradius, isolate 601305V J",1 µg/mL
same,MIC,"Anaerococcus tetradius; Anaerococcus tetradius, isolate 601326V H",1 µg/mL
same,MIC,"Anaerococcus tetradius; Anaerococcus tetradius, isolate 601340V 25",1 µg/mL
same,MIC,"Anaerococcus tetradius; Anaerococcus tetradius, isolate 601342V N",1 µg/mL
same,MIC,"Anaerococcus tetradius; Anaerococcus tetradius, isolate 601368V 42",1 µg/mL
same,MIC,"Anaerococcus tetradius; Anaerococcus tetradius, isolate 601369V 12",1 µg/mL
same,MIC,"Anaerococcus tetradius; Anaerococcus tetradius, isolate 601379V 25",1 µg/mL
same,MIC,"Anaerococcus tetradius; Anaerococcus tetradius, isolate 601401V T",1 µg/mL
same,MIC,"Anaerococcus tetradius; Anaerococcus tetradius, isolate 601429V 15",1 µg/mL
same,MIC,"Anaerococcus tetradius; Anaerococcus tetradius, isolate 601450V 22",1 µg/mL
same,MIC,"Anaerococcus tetradius; Anaerococcus tetradius, isolate 602375V 22",1 µg/mL
same,MIC50,Anaerococcus tetradius; [3],1 µg/mL
same,MIC90,Anaerococcus tetradius; [3],1 µg/mL
same,Number of strains with indicated MIC,"Anaerococcus tetradius; MIC […], 21 samples",1
same,MIC,Mobiluncus spp,0.03 µg/mL
same,activity against Atopobium vaginae,Atopobium vaginae,limited activity
same,MIC50,Atopobium vaginae; [4],128 µg/mL
same,MIC90,Atopobium vaginae; [4],> 128 µg/mL
same,Number of strains with indicated MIC,Atopobium vaginae; MIC 8 μg/ml,2
same,Number of strains with indicated MIC,Atopobium vaginae; MIC 16 μg/ml,5
same,Number of strains with indicated MIC,Atopobium vaginae; MIC 32 μg/ml,10
same,Number of strains with indicated MIC,Atopobium vaginae; MIC 64 μg/ml,8
same,Number of strains with indicated MIC,Atopobium vaginae; MIC >[…],24
same,Number of strains with indicated MIC,Atopobium vaginae; MIC […] μg/ml,1
same,Number of strains with indicated MIC,Atopobium vaginae; MIC […],12
same,Acceptable Range of MIC for control strain,[1],0.5 to 2 µg/mL
same,Acceptable Range of MIC for control strain,"B. fragilis, ATCC 25285",0.25 to 1 µg/mL
same,MIC Range,Prevotella bivia; # tested 34,4 to 16 µg/mL
same,Number of strains with indicated MIC,Prevotella bivia; MIC 8 μg/ml,6
same,Number of strains with indicated MIC,Prevotella bivia; MIC 16 μg/ml,13
same,Number of strains with indicated MIC,Prevotella bivia; MIC […] μg/ml,15
same,MIC,"Prevotella bivia; Prevotella bivia, isolate 601096 25",4 µg/mL
same,MIC,"Prevotella bivia; Prevotella bivia, isolate 601166 M",16 µg/mL
same,MIC,"Prevotella bivia; Prevotella bivia, isolate 601202 21",16 µg/mL
same,MIC,"Prevotella bivia; Prevotella bivia, isolate 601203 5",4 µg/mL
same,MIC,"Prevotella bivia; Prevotella bivia, isolate 601209 A1",4 µg/mL
same,MIC,"Prevotella bivia; Prevotella bivia, isolate 601212 9",4 µg/mL
same,MIC,"Prevotella bivia; Prevotella bivia, isolate 601213 9A",16 µg/mL
same,MIC,"Prevotella bivia; Prevotella bivia, isolate 601214 B",16 µg/mL
same,MIC,"Prevotella bivia; Prevotella bivia, isolate 601241 13",4 µg/mL
same,MIC,"Prevotella bivia; Prevotella bivia, isolate 601243 15",16 µg/mL
same,MIC,"Prevotella bivia; Prevotella bivia, isolate 601255 10",4 µg/mL
same,MIC,"Prevotella bivia; Prevotella bivia, isolate 601261 C",4 µg/mL
same,MIC,"Prevotella bivia; Prevotella bivia, isolate 601283 20",16 µg/mL
same,MIC,"Prevotella bivia; Prevotella bivia, isolate 601285 14",4 µg/mL
same,MIC,"Prevotella bivia; Prevotella bivia, isolate 601293 22",8 µg/mL
same,MIC,"Prevotella bivia; Prevotella bivia, isolate 601305 H",16 µg/mL
same,MIC,"Prevotella bivia; Prevotella bivia, isolate 601340 31",4 µg/mL
same,MIC,"Prevotella bivia; Prevotella bivia, isolate 601355 B",8 µg/mL
same,MIC,"Prevotella bivia; Prevotella bivia, isolate 601367 M",8 µg/mL
same,MIC,"Prevotella bivia; Prevotella bivia, isolate 601374 A1",16 µg/mL
same,MIC,"Prevotella bivia; Prevotella bivia, isolate 601378 B",16 µg/mL
same,MIC,"Prevotella bivia; Prevotella bivia, isolate 601379 19",16 µg/mL
same,MIC,"Prevotella bivia; Prevotella bivia, isolate 601388 T",4 µg/mL
same,MIC,"Prevotella bivia; Prevotella bivia, isolate 601389 10",4 µg/mL
same,MIC,"Prevotella bivia; Prevotella bivia, isolate 601389 J",4 µg/mL
same,MIC,"Prevotella bivia; Prevotella bivia, isolate 601392 14",4 µg/mL
same,MIC,"Prevotella bivia; Prevotella bivia, isolate 601409 V",4 µg/mL
same,MIC,"Prevotella bivia; Prevotella bivia, isolate 601410 12",4 µg/mL
same,MIC,"Prevotella bivia; Prevotella bivia, isolate 601429 1",8 µg/mL
same,MIC,"Prevotella bivia; Prevotella bivia, isolate 601433 19",8 µg/mL
same,MIC,"Prevotella bivia; Prevotella bivia, isolate 601449 E",16 µg/mL
same,MIC,"Prevotella bivia; Prevotella bivia, isolate 601453 A",8 µg/mL
same,MIC,"Prevotella bivia; Prevotella bivia, isolate 601455 D1",16 µg/mL
same,MIC,"Prevotella bivia; Prevotella bivia, isolate 601458 16",16 µg/mL
same,MIC50,"Prevotella bivia; Prevotella bivia, # tested 34",8 µg/mL
same,MIC90,"Prevotella bivia; Prevotella bivia, # tested 34",16 µg/mL
same,Susceptible,"Prevotella bivia; number (%) of isolates, # tested 34",21 (62) μg/ml
same,MIC Range,Peptoniphilus lacrimalis; # tested 20,0.5 to 4 µg/mL
same,MIC,"Peptoniphilus lacrimalis; Peptoniphilus lacrimalis, isolate 601028V 27A",2 µg/mL
same,MIC,"Peptoniphilus lacrimalis; Peptoniphilus lacrimalis, isolate 601060V 32A",2 µg/mL
same,MIC,"Peptoniphilus lacrimalis; Peptoniphilus lacrimalis, isolate 601078V O",1 µg/mL
same,MIC,"Peptoniphilus lacrimalis; Peptoniphilus lacrimalis, isolate 601084V c",4 µg/mL
same,MIC,"Peptoniphilus lacrimalis; Peptoniphilus lacrimalis, isolate 601105V 13",4 µg/mL
same,MIC,"Peptoniphilus lacrimalis; Peptoniphilus lacrimalis, isolate 601139V 17",4 µg/mL
same,MIC,"Peptoniphilus lacrimalis; Peptoniphilus lacrimalis, isolate 601213V 17",2 µg/mL
same,MIC,"Peptoniphilus lacrimalis; Peptoniphilus lacrimalis, isolate 601255V 12",1 µg/mL
same,MIC,"Peptoniphilus lacrimalis; Peptoniphilus lacrimalis, isolate 601261V O",1 µg/mL
same,MIC,"Peptoniphilus lacrimalis; Peptoniphilus lacrimalis, isolate 601293V 15",1 µg/mL
same,MIC,"Peptoniphilus lacrimalis; Peptoniphilus lacrimalis, isolate 601296V N",1 µg/mL
same,MIC,"Peptoniphilus lacrimalis; Peptoniphilus lacrimalis, isolate 601305V K-1",1 µg/mL
same,MIC,"Peptoniphilus lacrimalis; Peptoniphilus lacrimalis, isolate 601318V E",1 µg/mL
same,MIC,"Peptoniphilus lacrimalis; Peptoniphilus lacrimalis, isolate 601330V H",1 µg/mL
same,MIC,"Peptoniphilus lacrimalis; Peptoniphilus lacrimalis, isolate 601336V 47",1 µg/mL
same,MIC,"Peptoniphilus lacrimalis; Peptoniphilus lacrimalis, isolate 601365V 13",2 µg/mL
same,MIC,"Peptoniphilus lacrimalis; Peptoniphilus lacrimalis, isolate 601368V 39",0.5 µg/mL
same,MIC,"Peptoniphilus lacrimalis; Peptoniphilus lacrimalis, isolate 601375V E",1 µg/mL
same,MIC,"Peptoniphilus lacrimalis; Peptoniphilus lacrimalis, isolate 601388V B",1 µg/mL
same,MIC,"Peptoniphilus lacrimalis; Peptoniphilus lacrimalis, isolate 601401V I",1 µg/mL
same,MIC50,Peptoniphilus lacrimalis; [5],1 µg/mL
same,MIC90,Peptoniphilus lacrimalis; [5],4 µg/mL
